Experimental data as given in ChEMBL document CHEMBL5154826, “Discovery of the Clinical Candidate MAK683: An EED-Directed, Allosteric, and Selective PRC2 Inhibitor for the Treatment of Advanced Malignancies” (J Med Chem, 2022).
Converted amounts (≈) assume the structure as drawn.

How the values were obtained:
[1] = Volume of distribution at steady state ICR (CD-1) mouse at 2 mg/kg, po or 1 mg/kg, iv after 1 week by LC-MS/MS analysis; type: ADME, organism-based; settings: in vivo, 168 h, time 1 weeks
[2] = target: T1, Alpha-2C adrenergic receptor (Homo sapiens, UniProt P18825); experiment: Inhibition of alpha2c adrenergic receptor (unknown origin)
T1 sequence (P18825 whole entry): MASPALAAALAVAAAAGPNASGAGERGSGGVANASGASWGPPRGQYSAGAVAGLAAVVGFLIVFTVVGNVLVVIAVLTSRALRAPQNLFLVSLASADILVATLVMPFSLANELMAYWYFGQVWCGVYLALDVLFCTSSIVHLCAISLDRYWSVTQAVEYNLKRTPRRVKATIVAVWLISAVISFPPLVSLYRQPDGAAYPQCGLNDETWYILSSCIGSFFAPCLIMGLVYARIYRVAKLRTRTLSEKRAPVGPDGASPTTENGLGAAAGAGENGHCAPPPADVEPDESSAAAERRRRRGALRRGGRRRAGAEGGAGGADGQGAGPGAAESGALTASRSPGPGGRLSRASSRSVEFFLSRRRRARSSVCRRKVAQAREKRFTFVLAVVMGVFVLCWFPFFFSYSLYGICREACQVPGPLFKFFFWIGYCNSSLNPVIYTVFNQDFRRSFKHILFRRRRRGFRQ

Cytochrome P450 2C9 = Cytochrome P450 2C9 (Homo sapiens, UniProt P11712); experiment: Inhibition of CYP2C9 in human liver microsomes using diclofenac as substrate incubated for 10 mins in presence of NADPH by LC-MS/MS analysis; type: ADME, Microsome
[3] = Terminal half life in Sprague-Dawley rat at 2 mg/kg, po or 1 mg/kg, iv after 1 week by LC-MS/MS analysis; type: ADME, organism-based; settings: in vivo, time 1 weeks, read-out: beta t1/2 (converted)
[4] = Intrinsic clearance in dog hepatocytes measured per 10^6 cells; type: ADME, cell-based, Canis lupus familiaris, Hepatocyte; settings: read-out: CLH
[5] = High throughput solubility of the compound in FaSSIF after 16 to 24 hrs by MS/MS analysis; type: physicochemical; settings: time 16-24 hrs
[6] = Dose normalized AUC in wild type Beagle dog at 2 mg/kg, po or 1 mg/kg, iv after 1 week by LC-MS/MS analysis; type: ADME, organism-based, Canis lupus familiaris; settings: in vivo, 168 h, time 1 weeks
[7] = Plasma protein binding in human assessed as unbound fraction at 1 uM measured after 6 hrs LC-MS/MS analysis; type: ADME, cell-free
[8] = Permeability across basolateral to apical side in human Caco-2 cells incubated for 2 hrs by LC/MS/MS analysis; type: ADME, cell-based; settings: read-out: permeability
[9] = High throughput solubility of the compound in SGF after 16 to 24 hrs by MS/MS analysis; type: physicochemical; settings: time 16-24 hrs
[10] = Volume of distribution at steady state in Sprague-Dawley rat at 2 mg/kg, po or 1 mg/kg, iv after 1 week by LC-MS/MS analysis; type: ADME, organism-based; settings: in vivo, 168 h, time 1 weeks
[11] = Metabolic stability in rat microsomes assessed as intrinsic clearance; type: ADME, Microsome; settings: read-out: CLH
[12] = Dose normalized AUC in Sprague-Dawley rat at 2 mg/kg, po or 1 mg/kg, iv after 1 week by LC-MS/MS analysis; type: ADME, organism-based; settings: in vivo, 168 h, time 1 weeks
[13] = Dose normalized Cmax in wild type Beagle dog at 2 mg/kg, po or 1 mg/kg, iv after 1 week by LC-MS/MS analysis; type: ADME, organism-based, Canis lupus familiaris; settings: in vivo, 168 h, time 1 weeks
[14] = Metabolic stability in human microsomes assessed as intrinsic clearance; type: ADME, Microsome; settings: read-out: CLH
[15] = Plasma protein binding in human at 1 uM measured after 6 hrs LC-MS/MS analysis; type: ADME, cell-free; settings: read-out: PPB (converted)
[16] = Volume of distribution at steady state in wild type Beagle dog at 2 mg/kg, po or 1 mg/kg, iv after 1 week by LC-MS/MS analysis; type: ADME, organism-based, Canis lupus familiaris; settings: in vivo, 168 h, time 1 weeks
[17] = Dose normalized Cmax in ICR (CD-1) mouse at 2 mg/kg, po or 1 mg/kg, iv after 1 week by LC-MS/MS analysis; type: ADME, organism-based; settings: in vivo, 168 h, time 1 weeks
[18] = High throughput solubility of the compound at pH 7 after 16 to 24 hrs by MS/MS analysis; type: physicochemical; settings: buffer, time 16-24 hrs, read-out: solubility
[19] = Intrinsic clearance in mouse hepatocytes measured per 10^6 cells; type: ADME, cell-based, Hepatocyte; settings: read-out: CLH
[20] = Dissociation constant, pKa of compound; type: physicochemical
[21] = Plasma protein binding in dog at 1 uM measured after 6 hrs LC-MS/MS analysis; type: ADME, cell-free, Canis lupus familiaris; settings: read-out: PPB (converted)
[22] = Metabolic stability in dog microsomes assessed as intrinsic clearance; type: ADME, Canis lupus familiaris, Microsome; settings: read-out: CLH
[23] = Oral biovailability in Beagle dog at 2 mg/kg, po; type: ADME, organism-based, Canis lupus familiaris; settings: in vivo
Cytochrome P450 3A4 = Cytochrome P450 3A4 (Homo sapiens, UniProt P08684); experiment: Inhibition of CYP3A4 in human liver microsomes using midazolam as substrate incubated for 10 mins in presence of NADPH by LC-MS/MS analysis; type: ADME, Microsome
[24] = High throughput solubility of the compound at pH 1 after 16 to 24 hrs by MS/MS analysis; type: physicochemical; settings: buffer, time 16-24 hrs
[25] = Oral biovailability in ICR (CD-1) mouse at 2 mg/kg, po; type: ADME, organism-based; settings: in vivo
[26] = Terminal half life in wild type Beagle dog at 2 mg/kg, po or 1 mg/kg, iv after 1 week by LC-MS/MS analysis; type: ADME, organism-based, Canis lupus familiaris; settings: in vivo, time 1 weeks, read-out: beta t1/2 (converted)
[27] = Antitumor activity against human Karpas-422 cells xenografted Athymic BALB/c nude mouse assessed as minimum effective dose administered twice a day for 30 days; type: functional; settings: KARPAS-422, 720 h, time 30 day, read-out: MED
KARPAS-422 = experiment: Antiproliferative activity against human KARPAS-422 cells expressing EZH2 mutant assessed as inhibition of cell growth after 14 days by beckman coulter counting method; type: functional; settings: time 14 day
[28] = Oral bioavailability in Sprague-Dawley rat at 2 mg/kg; type: ADME, organism-based; settings: in vivo
[29] = Permeability across apical to basolateral side in human Caco-2 cells at 10 uM incubated for 2 hrs by LC/MS/MS analysis; type: ADME, cell-based; settings: Caco-2, read-out: permeability
[30] = Lipophilicity, logD of the compound at pH 7.4 by LC with tandem MS analysis; type: physicochemical; settings: buffer, read-out: logD
[31] = Terminal half life in ICR (CD-1) mouse at 2 mg/kg, po or 1 mg/kg, iv after 1 week by LC-MS/MS analysis; type: ADME, organism-based; settings: in vivo, time 1 weeks, read-out: beta t1/2 (converted)
[32] = Intrinsic clearance in human hepatocytes measured per 10^6 cells; type: ADME, cell-based, Hepatocyte; settings: read-out: CLH
[33] = Dose normalized AUC in ICR (CD-1) mouse at 2 mg/kg, po or 1 mg/kg, iv after 1 week by LC-MS/MS analysis; type: ADME, organism-based; settings: in vivo, 168 h, time 1 weeks
[34] = Free plasma concentration in Athymic BALB/c nude mouse xenografted with human Karpas-422 cells at 20 mg/kg, po after 12 hrs by HPLC-MS/MS analysis; type: ADME, organism-based; settings: in vivo
Cytochrome P450 2D6 = Cytochrome P450 2D6 (Homo sapiens, UniProt P10635); experiment: Inhibition of CYP2D6 in human liver microsomes using bufuralol as substrate incubated for 10 mins in presence of NADPH by LC-MS/MS analysis; type: ADME, Microsome
[35] = Plasma clearance in rat; type: ADME, cell-free
[36] = Plasma protein binding in mouse at 1 uM measured after 6 hrs LC-MS/MS analysis; type: ADME, cell-free; settings: read-out: PPB (converted)
[37] = High throughput solubility of the compound in FeSSIF after 16 to 24 hrs by MS/MS analysis; type: physicochemical; settings: time 16-24 hrs
[38] = Intrinsic clearance in rat hepatocytes measured per 10^6 cells; type: ADME, cell-based, Hepatocyte; settings: read-out: CLH
[39] = Metabolic stability in mouse microsomes assessed as intrinsic clearance; type: ADME, Microsome; settings: read-out: CLH
[40] = Plasma clearance in dog; type: ADME, cell-free, Canis lupus familiaris
[41] = Dose normalized Cmax in Sprague-Dawley rat at 2 mg/kg, po or 1 mg/kg, iv after 1 week by LC-MS/MS analysis; type: ADME, organism-based; settings: in vivo, 168 h, time 1 weeks
[42] = Plasma protein binding in rat at 1 uM measured after 6 hrs LC-MS/MS analysis; type: ADME, cell-free; settings: read-out: PPB (converted)

Chain of Cytochrome P450 3A4 (P08684 whole entry): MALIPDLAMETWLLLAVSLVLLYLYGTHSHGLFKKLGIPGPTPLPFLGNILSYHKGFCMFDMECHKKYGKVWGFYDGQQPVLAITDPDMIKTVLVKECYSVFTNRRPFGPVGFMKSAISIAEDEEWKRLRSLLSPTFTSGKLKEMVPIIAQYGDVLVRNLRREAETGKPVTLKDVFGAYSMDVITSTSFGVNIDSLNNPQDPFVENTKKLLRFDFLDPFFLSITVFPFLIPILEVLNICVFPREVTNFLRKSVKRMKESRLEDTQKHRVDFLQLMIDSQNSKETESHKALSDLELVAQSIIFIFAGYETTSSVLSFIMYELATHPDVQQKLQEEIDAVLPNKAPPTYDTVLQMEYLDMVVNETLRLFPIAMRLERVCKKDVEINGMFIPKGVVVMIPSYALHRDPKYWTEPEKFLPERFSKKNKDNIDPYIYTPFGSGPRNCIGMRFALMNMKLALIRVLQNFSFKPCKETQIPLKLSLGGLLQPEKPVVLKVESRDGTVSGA
Chain of Cytochrome P450 2C9 (P11712 whole entry): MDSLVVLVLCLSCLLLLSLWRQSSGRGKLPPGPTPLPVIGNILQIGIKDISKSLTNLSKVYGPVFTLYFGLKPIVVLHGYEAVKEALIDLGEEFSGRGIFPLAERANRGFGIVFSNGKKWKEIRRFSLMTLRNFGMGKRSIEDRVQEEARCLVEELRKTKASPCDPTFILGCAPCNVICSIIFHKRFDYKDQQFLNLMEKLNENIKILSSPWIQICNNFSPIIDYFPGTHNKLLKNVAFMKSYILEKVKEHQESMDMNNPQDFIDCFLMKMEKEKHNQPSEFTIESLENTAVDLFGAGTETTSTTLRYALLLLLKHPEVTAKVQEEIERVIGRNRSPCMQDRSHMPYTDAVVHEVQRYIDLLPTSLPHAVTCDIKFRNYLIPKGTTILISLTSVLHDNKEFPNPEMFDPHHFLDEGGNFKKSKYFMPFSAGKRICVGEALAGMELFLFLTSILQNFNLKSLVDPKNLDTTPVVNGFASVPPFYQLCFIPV
Chain of Cytochrome P450 2D6 (P10635 whole entry): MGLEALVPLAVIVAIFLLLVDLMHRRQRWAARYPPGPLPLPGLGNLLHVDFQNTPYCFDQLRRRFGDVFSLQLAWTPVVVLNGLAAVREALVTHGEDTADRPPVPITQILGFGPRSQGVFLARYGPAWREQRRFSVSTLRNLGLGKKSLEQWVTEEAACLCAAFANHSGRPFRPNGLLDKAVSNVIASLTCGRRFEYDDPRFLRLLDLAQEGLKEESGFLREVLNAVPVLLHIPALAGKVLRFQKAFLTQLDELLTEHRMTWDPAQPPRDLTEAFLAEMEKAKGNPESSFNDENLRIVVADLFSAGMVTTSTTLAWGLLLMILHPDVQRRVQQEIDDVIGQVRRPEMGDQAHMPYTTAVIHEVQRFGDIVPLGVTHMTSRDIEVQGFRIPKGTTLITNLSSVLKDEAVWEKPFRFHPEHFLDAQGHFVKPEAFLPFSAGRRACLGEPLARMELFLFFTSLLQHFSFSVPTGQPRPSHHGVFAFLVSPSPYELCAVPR

In the case of `COc1cccc(F)c1CNc1ccc(-c2cnc(C)nc2C)c2nncn12`, the Vdss [1] is reported as 7.5 L/kg, the IC50 [2] is reported as 8.7 µM and the IC50 (Cytochrome P450 2C9) is reported as greater than 20 µM. It also gave a half-life [3] of 66 min, a hepatocyte CLint [4] of less than 2.3 µL/min/1e6 cells and a solubility [5] of 34 µM (≈ 12.9 µg/mL). The AUC/dose [6] was 2392 nM·h, the fraction unbound at 6 h, 1 µM [7] was 0.13 and the Papp B→A at 2 h [8] was 42 ×10⁻⁶ cm/s. For the same molecule, the solubility [9] was 173 µM (≈ 65.5 µg/mL), the Vdss [10] was 2.4 L/kg and the microsomal CLint [11] was 11 µL/min/mg. The AUC/dose [12] was 2127 nM·h, the Cmax/dose [13] was 590 nM and the microsomal CLint [14] was 9 µL/min/mg. The fraction unbound at 6 h, 1 µM [15] was 0.13, the Vdss [16] was 2.1 L/kg and the Cmax/dose [17] was 288 nM. The solubility [18] was 2.6 µM (≈ 0.984 µg/mL), the hepatocyte CLint [19] was 3.6 µL/min/1e6 cells and the pKa [20] was 3.3. The fraction unbound at 6 h, 1 µM [21] was 0.15, the microsomal CLint [22] was 10 µL/min/mg and the bioavailability [23] was 68%. The IC50 (Cytochrome P450 3A4) was greater than 20 µM, the solubility [24] was greater than 13 mM and the bioavailability [25] was 132%. The half-life [26] was 120 min, the minimal effective dose [27] was 7 mg/kg and the GI50 (KARPAS-422; Homo sapiens, KARPAS-422, 336 h) was 6.7 µM. For the same molecule, the GI90 (KARPAS-422) was 32 µM, the bioavailability [28] was 109% and the Papp A→B at 2 h, 10 µM [29] was 7.2 ×10⁻⁶ cm/s. It also gave a logD [30] of 3.8, a half-life [31] of 132 min and a hepatocyte CLint [32] of less than 2.3 µL/min/1e6 cells. The AUC/dose [33] was 1032 nM·h, the “Cp(f)” value [34] was 32 nM and the IC50 (Cytochrome P450 2D6) was greater than 20 µM. For the same molecule, the clearance [35] was 22 mL/min/kg, the fraction unbound at 6 h, 1 µM [36] was 0.12 and the solubility [37] was 86 µM (≈ 32.5 µg/mL). It also gave a hepatocyte CLint [38] of 3.2 µL/min/1e6 cells, a microsomal CLint [39] of 21 µL/min/mg and a clearance [40] of 13 mL/min/kg. It also gave a Cmax/dose [41] of 387 nM and a fraction unbound at 6 h, 1 µM [42] of 0.1.
